What was measured:
[1] = target: T1, Nuclear receptor ROR-gamma (Homo sapiens, UniProt P51449)
T1 sequence (P51449 whole entry): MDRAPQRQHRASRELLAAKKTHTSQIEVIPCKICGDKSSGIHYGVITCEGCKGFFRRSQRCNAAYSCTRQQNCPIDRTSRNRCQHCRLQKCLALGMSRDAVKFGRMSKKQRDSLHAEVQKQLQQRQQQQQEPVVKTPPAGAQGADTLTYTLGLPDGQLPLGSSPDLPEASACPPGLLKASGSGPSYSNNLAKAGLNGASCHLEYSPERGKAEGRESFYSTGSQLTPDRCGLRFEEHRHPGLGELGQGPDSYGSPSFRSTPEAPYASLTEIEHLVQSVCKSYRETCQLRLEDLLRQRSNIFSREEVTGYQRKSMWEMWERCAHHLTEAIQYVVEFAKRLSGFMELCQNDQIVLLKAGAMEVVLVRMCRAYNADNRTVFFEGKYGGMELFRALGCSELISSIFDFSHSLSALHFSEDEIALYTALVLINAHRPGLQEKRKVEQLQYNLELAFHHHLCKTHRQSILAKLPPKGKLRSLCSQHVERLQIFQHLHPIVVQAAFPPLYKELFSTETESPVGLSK

[2] = Half life in mouse liver microsomes at 1 mM in presence of NADPH by HPLC-MS/MS analysis; set-up: dose or concentration left out as unconfirmed
[3] = target: T1, Nuclear receptor ROR-gamma; remark: listed apart in the source
[4] = tested on: Mus musculus; assay: Antiinflammatory activity against imiquimod-induced psoriasis BALB/c mouse model assessed as reduction in psoriasis symptoms at 0.4 mg/kg, po qd for 7 days; conditions: 168 h, read-out: INH

IC50 [1] [nM] | Structure (SMILES) | also measured
32 | CC(=O)Nc1ccc(Nc2nc(Oc3c(Cl)cccc3C(F)(F)F)nc(-c3ccc(C(F)(F)F)cc3)n2)cc1 | half-life [2]: 17.8 min
241 | Cc1cccc(-c2nc(Nc3ccc(C(=O)O)cc3)nc(Oc3c(Cl)cccc3Cl)n2)c1 | –
99.5 | CC(C)(C)c1ccc(-c2nc(Nc3ccc(C(=O)O)cc3)nc(Oc3c(Cl)cccc3Cl)n2)cc1 | –
12.9 | CNC(=O)c1ccc(Nc2nc(Oc3c(Cl)cccc3Cl)nc(-c3ccc(OC)cc3)n2)cc1 | –
16.7 | CNC(=O)c1ccc(Nc2nc(Oc3c(Cl)cccc3C(F)(F)F)nc(-c3ccc(OC)cc3)n2)cc1 | –
3420 | O=C(O)c1ccc(Nc2nc(Oc3c(Cl)cccc3Cl)nc(C3CCCC3)n2)cc1 | –
91 | COc1ccc(-c2nc(Nc3cccc(C(=O)O)c3)nc(Oc3c(Cl)cccc3Cl)n2)cc1 | –
152 | O=C(O)c1ccc(Nc2nc(Oc3c(Cl)cccc3Cl)nc(-c3ccc(F)cc3)n2)cc1 | –
61.7 | Cc1ccc(-c2nc(Nc3ccc(C(=O)O)cc3)nc(Oc3c(Cl)cccc3Cl)n2)cc1 | –
32.5 | CNS(=O)(=O)c1ccc(Nc2nc(Oc3c(Cl)cccc3Cl)nc(-c3ccc(OC)cc3)n2)cc1 | –
13.3 | COc1ccc(-c2nc(Nc3ccc(C(N)=O)cc3)nc(Oc3c(Cl)cccc3Cl)n2)cc1 | –
83 | COc1ccc(-c2nc(Nc3ccc(C(=O)O)c(O)c3)nc(Oc3c(Cl)cccc3Cl)n2)cc1 | –
99.5 | COc1ccc(-c2nc(Nc3ccc(C(C)C(=O)O)cc3)nc(Oc3c(Cl)cccc3Cl)n2)cc1 (stereo unspecified) | –
22.5 | CNC(=O)c1ccc(Nc2nc(Oc3c(Cl)cccc3Cl)nc(-c3ccc(C(F)(F)F)cc3)n2)cc1 | –
822 | COc1ccc(-c2nc(NC3CCC(C(=O)O)C3)nc(Oc3c(Cl)cccc3Cl)n2)cc1 (stereo unspecified) | –
68.6 | O=C(O)c1ccc(Nc2nc(Oc3c(Cl)cccc3Cl)nc(-c3ccc(C(F)(F)F)cc3)n2)cc1 | IC50 [3]: 1620 nM; half-life [2]: > 145 min
596 | O=C(O)c1ccc(Nc2nc(Oc3c(Cl)cccc3Cl)nc(C3CCCCC3)n2)cc1 | –
– | CN(Cc1cnc2nc(N)nc(N)c2n1)c1ccc(C(=O)N[C@@H](CCC(=O)O)C(=O)O)cc1 [METHOTREXATE] | inhibition in vivo at 0.4 mg/kg [4]: 53.1%

Source: ChEMBL document CHEMBL5370534, “Discovery of novel triazine derivatives as potent retinoic acid receptor-related orphan receptor γt (RORγt) inverse agonists” (Eur J Med Chem, 2023)
